In assay [1] the target is T1, 5-HT1A receptor (Rattus norvegicus, UniProt P19327).
T1 construct: rat hippocampal membrane homogenate; from tissue; host or cells: rat hippocampus (membrane homogenate)
T1 sequence (P19327 1-422): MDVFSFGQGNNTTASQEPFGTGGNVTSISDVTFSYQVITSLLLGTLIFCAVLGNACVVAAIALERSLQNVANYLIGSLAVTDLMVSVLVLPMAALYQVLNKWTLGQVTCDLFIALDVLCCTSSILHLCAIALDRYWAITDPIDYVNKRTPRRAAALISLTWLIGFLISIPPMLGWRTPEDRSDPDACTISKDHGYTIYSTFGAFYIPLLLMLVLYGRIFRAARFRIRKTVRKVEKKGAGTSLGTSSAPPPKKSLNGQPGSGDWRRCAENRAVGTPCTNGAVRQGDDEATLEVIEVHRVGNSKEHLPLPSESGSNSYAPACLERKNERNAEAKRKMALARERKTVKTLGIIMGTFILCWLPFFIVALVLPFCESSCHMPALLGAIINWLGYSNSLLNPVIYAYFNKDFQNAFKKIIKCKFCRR
The experiment in a line: 5-HT1A receptor binding activity in rat hippocampal membrane homogenate. The procedure: The compounds of the invention were tested for 5 HT1A receptor binding activity in rat hippocampal membrane homogenate by the method of B S Alexander and M D Wood, J Pharm Pharmacol, 1988, 40, 888-891.

Assay [2] addresses T2, 5-HT1 receptor (Rattus norvegicus, UniProt P19327).
T2 construct: 5-HT related behaviour in rats following i.v. administration; from tissue; host or cells: living rat (in vivo test, endogenous receptor)
T2 sequence (P19327 1-422): T1 sequence (P19327 1-422)
The experiment in a line: 5-HT1 receptor agonist activity in vivo: 5-HT related behaviour in rats following i.v. administration. As to conditions: iv, calculated by the method of Kimball et al. The procedure: The compounds are evaluated for 5-HT1 receptor agonist activity in vivo by a method involving the assessment of 5-HT related behaviour in rats following i.v. administration of the test compound (M D Tricklebank et al, European Journal of Pharmacol, 1985, 106, 271-282).

Assay [3] deals with T3, 5HT1A receptor (Cavia porcellus, UniProt A0A286Y074).
T3 construct: in the guinea-pig ileum in vitro; from tissue; host or cells: guinea-pig ileum
T3 sequence (A0A286Y074 1-421): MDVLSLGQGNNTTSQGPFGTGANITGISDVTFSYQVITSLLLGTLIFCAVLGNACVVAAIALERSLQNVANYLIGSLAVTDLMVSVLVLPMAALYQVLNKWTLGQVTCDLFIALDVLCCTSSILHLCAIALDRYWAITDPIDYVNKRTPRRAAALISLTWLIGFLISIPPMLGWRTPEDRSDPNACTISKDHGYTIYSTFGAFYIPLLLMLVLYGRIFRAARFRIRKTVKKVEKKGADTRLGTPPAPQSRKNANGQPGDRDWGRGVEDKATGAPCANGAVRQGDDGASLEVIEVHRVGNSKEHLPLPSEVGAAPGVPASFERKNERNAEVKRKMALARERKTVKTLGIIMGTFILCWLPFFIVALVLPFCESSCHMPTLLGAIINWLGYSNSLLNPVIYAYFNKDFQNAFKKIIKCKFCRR
The assay can be described thus: antagonism of 8-hydroxy-2-(di-n-propylamino)tetralin in the guinea-pig ileum in vitro. The class given is biochemical.

These results are taken from patent US5075303A, “Pyridine derivatives” (John Wyeth & Brother Limited, priority 1989, dated 1991).

Molecules are shown by their SMILES.

For `CN(C)C1CCc2cccnc2C1` (stereo not drawn) [Example 3, 5,6,7,8-Tetrahydro-7-dimethylaminoquinoline], the IC50 in assay [1] is 137 nM. Same read-out and setting: as for `CN(CCC1COc2ccccc2O1)C1CCc2cccnc2C1` (stereo not drawn) [Example 20, 7-Amino-5,6,7,8-tetrahydro N-{2 [2 (2,3 dihydro-1,4-benzodioxinyl)]ethyl}-N-methylquinoline], the figure is 68 nM; as for `CN(CCNC(=O)Cc1c(F)cccc1F)C1CCc2cccnc2C1` (stereo not drawn) [Example 35, N-{2-[N'-(5,6,7,8-Tetrahydroquinolin-7 yl)-N'-methyl]aminoethyl}-2,6-difluorophenylacetamide], 131 nM. The compound `CCCN(CC1COc2ccccc2O1)C1CCc2cccnc2C1` (stereo not drawn) [Example 15] came in with a half-inhibitory concentration (IC50) in assay [1] of 42 nM. For the compound `CCCN(CCC)C1CCc2cccnc2C1` (stereo not drawn) [Example 12, 5,6,7,8-Tetrahydro-7--(1,1-dipropylamino)quinoline], the concentration for half-maximal inhibition (IC50) in assay [1] came out at 138 nM. The ED50 in assay [2] is 0.62 mg/kg. For the compound `CN(CCCCN1C(=O)CC2(CCCC2)CC1=O)C1CCc2cccnc2C1` (stereo not drawn) [Example 16, 8-{4-[N-(5,6,7,8-Tetrahydroquinolin-7 yl) N-methyl]aminobutyl}-8-azaspiro[4.5]decan 7,9-dione], the half-inhibitory concentration (IC50) in assay [1] was determined as 26 nM. Further, the 50% effective dose (ED50) in assay [2] was 0.81 mg/kg. The same compound yielded a pA2 in assay [3] of 7.7. `CCCN(CCNC(=O)c1ccc(F)cc1)C1CCc2cccnc2C1` (stereo not drawn) [Example 19, 4-Fluoro-N-[2-[N --(5,6,7,8-tetrahydroquinoin-7 yl)-N'-propyl]aminoethyl}benzamide] returned an IC50 in assay [1] of 9 nM. Moreover, in assay [2], the median effective dose (ED50) is 0.52 mg/kg. `c1cnc2c(c1)CCC(N1CCCC1)C2` (stereo not drawn) [Example 38, 5,6,7,8-Tetrahydro 7-pyrrolidinoquinoline] registered an IC50 in assay [1] of 55 nM. In addition, in assay [2], the 50% effective dose (ED50) was 0.57 mg/kg. On the same counts, the results for `c1cnc2c(c1)CCC(N1CCC1)C2` (stereo not drawn) [Example 50, 7-Azetidino-5,6,7,8-tetrahydroquinoline] are 136 nM and 1.1 mg/kg.

By IC50 is commonly meant the midpoint of a concentration-inhibition curve. Read a low IC50 as greater potency. By ED50 is commonly meant the dose that gives a 50% effect, or the effect in half of the subjects. As usually defined, the pA2 is a measure of antagonist potency on a negative log scale.
